Each structure is given as a SMILES string.

Sequence of Vitamin K epoxide reductase complex subunit 1 (Q9BQB6 whole entry, one chain of several): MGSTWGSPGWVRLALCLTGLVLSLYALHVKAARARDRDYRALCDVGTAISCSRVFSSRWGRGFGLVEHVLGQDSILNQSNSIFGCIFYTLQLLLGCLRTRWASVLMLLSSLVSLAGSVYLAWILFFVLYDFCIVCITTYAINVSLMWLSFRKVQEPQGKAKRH

This experiment addresses Vitamin K epoxide reductase complex subunit 1 (Homo sapiens, UniProt Q9BQB6). The experiment is described as follows: Inhibition of VKOR (unknown origin) in HEK293 expressing FIXgla-PC incubated for 48 hrs by ELISA. The experiment is classed as cell-based. Background: An ELISA detects its analyte on a solid surface through an enzyme-linked reagent.
The IC50 is the concentration at which inhibition is half-maximal. The compound `C[C@]1(O)C[C@H](C2=C/C=C\C=C/C=C\2)[C@]2(COc3ccccc3C2=O)n2c(=O)n(-c3ccccc3)c(=O)n21` showed an IC50 of 58.2 nM. Next, `CC(=O)CC(c1c(O)c2ccccc2oc1=O)C1CCCCC1` (racemic): 90.2 nM; `CC(=O)CC(C1=C/C=C(C(=O)O)\C=C/C=C\1)c1c(O)c2ccccc2oc1=O` (racemic): 1930 nM. Under `CC(=O)CC(c1c(O)c2ccccc2oc1=O)C1CCCCCCC1` (racemic) stands 59 nM; under `CC1(O)CC(C2=C/C=C\C=C/C=C\2)c2c(c3ccccc3oc2=O)O1` (racemic), 4.5 nM.

Source of the values: ChEMBL document CHEMBL4433231 (Bioorg Med Chem Lett, 2019).
